Drawing on patent publication US11266640B2, “Polycyclic compound acting as IDO inhibitor and/or IDO-HDAC dual inhibitor” (Hangzhou Innogate Pharma Co., Ltd., priority 2017, dated 2022), this text covers IC50 for eleven compounds.

One test addresses T1, hIDO1 (Homo sapiens, UniProt P14902).
T1 construct: expressed in transfected cells; host or cells: HEK293T (293T) cells, transient transfection with Fugene 6
Briefly: IDO inhibition activity based on HEK293T cells transfected with hIDO1 plasmid. The test is classed as cell-based. The settings on record: HEK293T cells transfected with hIDO1, 16 hours incubation, OD 480 nm; read-out: IDO inhibitory activity of HEK293T cells (IC50). On the procedure:
1. Test Method for IDO Inhibition Activity Based on HEK293T Cells:
The first step: cell transfection and plating. 5×10^6 293T cells were separately seeded in two T75 flasks and incubated overnight at 37° C. in a 5% CO2 incubator. […] of a mixture containing 1.5 μg of hIDO1 plasmid and 300 μL of opti-MEM was made into a mixture A; 18 μL of liposome fugene 6 was mixed with 300 μL of opti-MEM to prepare a mixture B, and allowed to stand at room temperature for 5 minutes. Mixture A and Mix B were mixed, placed at room temperature for 20 minutes, added to a 293T culture flask, and the other flask was used as a control and incubated overnight at 37° C. in a 5% CO2 incubator. The medium was discarded, digested with trypsin, and after digestion, the cells were neutralized with serum-containing medium, and the cells were blown to cause the cells to fall off. Pipette the cell suspension into a centrifuge tube and centrifuge at a speed of 800-1000 for 1-3 minutes. Aspirate the cell supernatant from the centrifuge tube. Add an appropriate volume of medium to the tube and gently blister to resuspend the cells. Count using a Vi-Cell XR cytometer. Adjust the cell suspension to the appropriate concentration. The cell suspension was added to a white-well 96-well plate at 80 μL/well. The second step: preparation and addition of the compound. Compounds were formulated in DMSO at 600 μM and the compounds were diluted in DMSO according to a multiple of the following table to give 6 concentration gradients of the compound. The 200× compound prepared in DMSO was formulated into a 10× dilution solution in proportion to the corresponding cell culture medium. Add 10 μL of 10× corresponding compound dilution and 10 μL of 10×TRP to each well, except for Min. Incubate for 16 hours in a 37° C. incubator. The third step: detection and analysis. Cell morphology was observed under an inverted microscope. 80 μL of the supernatant was added to a 3894 plate, and 10 μL of 6.1 N trichloroacetic acid was added to each well, shaken for 2 minutes, and placed in a 50-degree incubator for 30 minutes. Centrifuged at 2500 rpm for 10 minutes. Take 70 μL of the supernatant and transfer to a 3635 UV plate, add 70 μL of the reaction solution, and shake for 2 minutes to make the reaction uniform. Use EnSpire (PE) to detect data with an OD of 480 nm. The cell culture plate 3903 was allowed to stand at room temperature for 30 minutes. 100 μL/well of the cell activity detecting reagent was added to the culture plate. Mix on a shaker for 2 minutes to induce cell lysis. The 96-well plate was allowed to stand at room temperature for 10 minutes to stabilize the luminescence signal. Paste the white base film on the bottom of the plate and the plate was tested in Flexstation 3 (the relevant setting is: Illumination, integration time 500 ms). Record the experimental results obtained from the analysis.
The IC50 value is expressed by: A: IC50 value≤10 nM; B: 10 nM<IC50 value≤50 nM; C: 50 nM<IC50 value≤100 nM; D: IC50 value>100 nM.

For another test, the target named is T2, IDO (Homo sapiens, UniProt P14902).
T2 construct: endogenous in cells; host or cells: HeLa cells treated with IFNγ
Briefly: Hela cell-based IDO inhibitory activity test (IFNγ added). The settings on record: Hela cells with IFNγ, 48 hours incubation, OD 480 nm. In short, it runs like this: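 HeLa cells dosed 24 h after seeding with 6 compound concentrations plus IFNγ, then incubated 48 h at 37° C. Supernatant treated with trichloroacetic acid (30 min, 50 °C), then reaction solution added and read at OD 480 nm; parallel luminescent cell viability readout; IC50 derived.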

T2 sequence (P14902 whole entry): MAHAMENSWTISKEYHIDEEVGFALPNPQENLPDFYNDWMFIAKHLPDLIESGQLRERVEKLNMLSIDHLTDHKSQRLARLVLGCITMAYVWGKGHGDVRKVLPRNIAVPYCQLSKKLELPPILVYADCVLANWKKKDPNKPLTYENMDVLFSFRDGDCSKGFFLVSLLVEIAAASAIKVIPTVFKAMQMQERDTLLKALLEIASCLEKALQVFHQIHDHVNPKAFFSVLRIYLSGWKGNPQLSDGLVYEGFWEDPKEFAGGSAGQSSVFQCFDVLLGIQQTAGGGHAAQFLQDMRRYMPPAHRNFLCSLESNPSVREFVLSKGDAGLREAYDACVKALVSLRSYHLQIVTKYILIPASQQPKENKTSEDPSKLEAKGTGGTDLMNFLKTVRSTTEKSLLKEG
T1 sequence (P14902 whole entry): as above

As for `CC(C)(C(=O)Nc1ccc(Cl)cn1)[C@H]1C[C@H]2C[C@@H](c3ccnc4ccc(F)cc34)C[C@H]2C1` [Compound 84], the IC50 on hIDO1 was at most 10 nM; against IDO, above 100 nM.
For `CC(C)(C(=O)Nc1ccc(Cl)nc1)[C@H]1C[C@H]2C[C@@H](c3ccnc4ccc(F)cc34)C[C@H]2C1` [Compound 85], in that order: at most 10 nM and 5 to 25 nM.
On the same counts, the results for `C#Cc1ccc(NC(=O)C(C)(C)[C@H]2C[C@H]3C[C@@H](c4ccnc5ccc(F)cc45)C[C@H]3C2)nc1` [Compound 86] are at most 10 nM and at most 5 nM.
For `C#Cc1ccc(NC(=O)C(C)(C)[C@H]2C[C@H]3C[C@@H](c4ccnc5ccc(F)cc45)C[C@H]3C2)cn1` [Compound 87], in that order: at most 10 nM and at most 5 nM.
Turning to `CC(C)(C(=O)Nc1ccc(C#N)cn1)[C@H]1C[C@H]2C[C@@H](c3ccnc4ccc(F)cc34)C[C@H]2C1` [Compound 88], the IC50 at hIDO1 is at most 10 nM; against IDO it was at most 5 nM.
Turning to `CC#Cc1ccc(NC(=O)C(C)(C)[C@H]2C[C@H]3C[C@@H](c4ccnc5ccc(F)cc45)C[C@H]3C2)nc1` [Compound 90], the IC50 at hIDO1 was at most 10 nM; on IDO, at most 5 nM.
For `O=C(Nc1ccc(Cl)cn1)C1([C@@H]2C[C@H]3C[C@@H](c4ccnc5ccc(F)cc45)C[C@H]3C2)CC1` [Compound 92], in that order: at most 10 nM and at most 5 nM.
As to `C#Cc1ccc(NC(=O)C2([C@@H]3C[C@H]4C[C@@H](c5ccnc6ccc(F)cc56)C[C@H]4C3)CC2)cn1` [Compound 93], the IC50 on hIDO1 was at most 10 nM; on IDO, at most 5 nM.
On the same counts, the results for `N#Cc1ccc(NC(=O)C2([C@@H]3C[C@H]4C[C@@H](c5ccnc6ccc(F)cc56)C[C@H]4C3)CC2)nc1` [Compound 94] are 10 to 50 nM and at most 5 nM.
For `O=C(Nc1ccc(Cl)cn1)C1([C@H]2C[C@H]3C[C@@H](c4ccnc5ccc(F)cc45)C[C@H]3C2)CC1` [Compound 95], in that order: at most 10 nM and at most 5 nM.
As for `C#Cc1ccc(NC(=O)C2([C@H]3C[C@H]4C[C@@H](c5ccnc6ccc(F)cc56)C[C@H]4C3)CC2)nc1` [Compound 96], the IC50 on hIDO1 is at most 10 nM; against IDO, at most 5 nM.
